We go through four compounds from patent publication US10016486B1, “Methods and compositions using AMPK activators for pharmacological prevention of chronic pain” (ARIZONA BOARD OF REGENTS ON BEHALF OF THE UNIVERSITY OF …, priority 2013, dated 2018).

Entries after “also recorded” stand apart in the source; their conditions may differ.

Series [1] has as its system translation regulation signaling pathways and nascent protein synthesis in injured nerves neurons. The note with it: previously demonstrated; cited from earlier work.
The subject of series [2] is Male ICR mice. The experiment in a line: Plantar incision model: acute mechanical hypersensitivity (paw withdrawal thresholds, von Frey filaments). The class given is in vivo. Here is the method:
(§1) Behavior testing: For the testing, animals were placed in acrylic boxes with wire mesh floors and allowed to habituate for approximately 1 h on all testing days. Paw withdrawal thresholds were measured using calibrated von Frey filaments (Stoelting, Wood Dale, Ill.) by stimulating the plantar aspect of left hind paw using the up-down method (Chaplan et al., 1994). Plantar incision and behavioral testing: Prior to surgery all animals were assessed for paw withdrawal thresholds. A mouse model of incisional pain was used for this study (Banik et al., 2006). […] Sham controls underwent the same procedure but without the incision. The skin was apposed with 2 sutures of […]. […] The paw withdrawal thresholds were again measured at 1 h, 3 h and 24 h following the PGE2 injection. Statistical Analysis and Data Presentation: Data are shown as means and the standard error of the mean (±SEM) of 6 animals (for behavioral studies). Graph plotting and statistical analysis used Graphpad Prism Version 5.03 (Graph Pad Software, Inc. San Diego, Calif., USA). Statistical evaluation was performed by one- or two-way analysis of variance (ANOVA), followed by appropriate post-hoc tests. The a priori level of significance at 95% confidence level was considered at p<0.05.

The test system of series [3] is Male ICR mice. The experiment in a line: Plantar incision model: hyperalgesic priming precipitated by intraplantar PGE2 on day 14. The class given is in vivo. The procedure:
as §1

Series [4] concerns neuropathic allodynia induced by peripheral nerve injury. The note with it: previously demonstrated; cited from earlier work.
For series [5] the following is noted: general statement; cited from earlier work.
Series [6] concerns Male ICR mice. The conditions noted are these: local injection of resveratrol into the hind paw following plantar incision; previously demonstrated; cited from earlier work.
The subject of series [7] is Male ICR mice. The note with it: local injection of resveratrol into the hind paw following plantar incision; previously demonstrated; cited from earlier work. The source holds these as a separate data set.
Series [8] concerns Male ICR mice. The experiment in a line: Wound healing and wound closure after plantar incision (H & E staining). The conditions noted are these: maximal doses (resveratrol 10 μg intraplantar, metformin 200 mg/kg i.p., OSU53 10 or 30 μg intraplantar); for wound size vs vehicle treated group: Day 3 after plantar incision; for wound closure: Day 7 after plantar incision.
Method: Experimental animals: Male ICR mice (Harlan, 20-25 g) were used for the study.
Immunohistochemistry: To determine re-epithelialization, plantar skin was excised from the left hind paw of mice either 3 days or 7 days following plantar incision surgery. The skin was immediately cryoprotected and frozen in O.C.T compound and sectioned (20 μm) on cryostat. The sections were then fixed in formalin and immersed in 0.1% hematoxylin for 3 minutes, washed in tap water, then immersed in 0.1% eosin for 3 minutes, and dehydrated through graded ethanol (Protocol from University of Michigan Center for Organogenesis). Finally sections were coverslipped with Permount (Fisher, Pittsburgh, Pa.). The sections were imaged and the width between 2 epithelial edges was measured using Olympus BX51 microscope.
In series [9] the test system is ERK and mTOR signaling in sensory neurons. The note with it: time- and concentration-dependent; previously demonstrated; cited from earlier work.
Another series relates to AMPK. The note with it: independent of upstream kinase LKB1; Lee et al., 2011; read-out: EC50, stimulation of AMPK kinase activity through direct activation; cited from earlier work.
[10] abbreviates: OSU53 10 or 30 μg injected locally into the hind paw around the incision.
The mark [11] stands for this setting: metformin lower doses (30, 100, 150) intra-peritoneal for 4 days starting 2 days prior to surgery.
The mark [12] stands for this setting: metformin maximal dose 200 mg/kg intra-peritoneal for 4 days starting 2 days prior to surgery.

As for `N#Cc1c(O)c2c(-c3ccc(-c4ccccc4O)cc3)csc2[nH]c1=O` [A-769662], the “translation regulation signaling pathways and nascent protein synthesis in injured nerves neurons” value in series [1] is “inhibited”. In addition, the “plantar incision-induced acute mechanical hypersensitivity” value with Male ICR mice [2] (A-769662 30 mg/kg intra-peritoneal for 4 days starting 2 days prior to surgery, 30 mg/kg) was “did not block; also recorded: not effective”. Moreover, the “hyperalgesic priming following PGE2 injection on day 14” value with Male ICR mice [3] (A-769662 30 mg/kg intra-peritoneal for 4 days starting 2 days prior to surgery) is given as “significantly blocked”. Besides, in [4], the “neuropathic allodynia induced by peripheral nerve injury” value was “resolution of neuropathic allodynia”.

On to `Oc1ccc(C=Cc2cc(O)cc(O)c2)cc1` [resveratrol], for which the bioavailability result in [5] is given as “lacks bioavailability”. The “hyperalgesic priming induced by incision” value with Male ICR mice [6] is listed as “attenuates; also recorded: dose-relatedly reverses”. The incision-mediated mechanical hypersensitivity result in the series on Male ICR mice [7] is “attenuates; also recorded: dose-relatedly reverses”. The “plantar incision-induced acute hypersensitivity” value with Male ICR mice [2] (resveratrol alone, 3 μg injected in hind paw around incision on day of surgery and 24 hrs post-surgery (sub-efficacious dose)) was “blunted acute hypersensitivity compared to vehicle treated mice but the effect was not significant”. Besides, the “plantar incision-induced acute mechanical hypersensitivity” value with Male ICR mice [2] (topical resveratrol cream (2 mg/ml in PEG), 100 μg, applied once immediately following incision, vs vehicle) is recorded as “blunted; also recorded: blunted hypersensitivity though not significant”; with Male ICR mice [2] (topical resveratrol cream, 100 μg, applied twice: immediately following incision and 24 hrs following incision, vs vehicle), “significantly blocked; also recorded: significantly attenuated”. In addition, the “plantar incision-induced hyperalgesic priming precipitated by PGE2” value with Male ICR mice [3] (topical resveratrol 100 μg at the time of incision and 1 day post incision, PGE2 100 ng on day 14) is “significantly blocked; also recorded: prevented the development of hyperalgesic priming”; with Male ICR mice [3] (topical resveratrol 100 μg once immediately following incision, PGE2 100 ng on day 14) it was “abolished; also recorded: prevented the development of hyperalgesic priming”. Also, in the series with Male ICR mice [8], the “wound size vs vehicle treated group” value is given as “no differences”. The wound closure entry with Male ICR mice [8] is listed as “completely closed”. For the same compound, in [9], the “ERK and mTOR signaling in sensory neurons” value is given as “profoundly inhibits”.

Regarding `CC1(CN2C(=O)S/C(=C\c3ccc(NS(=O)(=O)c4ccc([N+](=O)[O-])c(C(F)(F)F)c4)cc3)C2=O)CCCCC1` [OSU53], the “plantar incision-induced acute mechanical hypersensitivity” value in the series on Male ICR mice [2] (setting [10]) is listed as “significantly blocked; also recorded: dose-relatedly blocked”. The EC50 (usually the concentration at which the effect is half-maximal) in the series on AMPK was 300 nM. Moreover, the “hyperalgesic priming after PGE2 injection on day 14” value in the series with Male ICR mice [3] (setting [10]) is “significantly blocked; also recorded: dose-relatedly blocked”.

Take `CN(C)C(=N)N=C(N)N` [metformin]: in [1], the “translation regulation signaling pathways and nascent protein synthesis in injured nerves neurons” value is “inhibited”. Further, the “plantar incision-induced acute hypersensitivity” value was “significantly blocked” with Male ICR mice [2] (metformin 30, 100, 150 or 200 mg/kg intra-peritoneal for 4 days (FIG. 2 legend, all doses together)) and “blunted acute hypersensitivity compared to vehicle treated mice but the effect was not significant” in the series with Male ICR mice [2] (metformin alone, 150 μg intra-peritoneal for 4 days starting 2 days prior to surgery (sub-efficacious dose)). Besides, the “plantar incision-induced acute mechanical hypersensitivity” value in the series with Male ICR mice [2] (setting [11]) is “not effective”; in the series with Male ICR mice [2] (setting [12]), “prevented”. Moreover, the “plantar incision-induced hyperalgesic priming precipitated by PGE2” value with Male ICR mice [3] (metformin 30, 100, 150 or 200 mg/kg intra-peritoneal for 4 days (FIG. 3 legend, all doses together)) is “significantly blocked”. The “hyperalgesic priming following PGE2 injection on day 14” value with Male ICR mice [3] (setting [11]) was “significantly blocked”; in the series on Male ICR mice [3] (setting [12]) it was “prevented”. For the same compound, the “wound size vs vehicle treated group” value in the series with Male ICR mice [8] was “No differences”. In addition, the wound closure entry in the series with Male ICR mice [8] was “completely closed”. Besides, the “neuropathic allodynia induced by peripheral nerve injury” value in series [4] is recorded as “resolution of neuropathic allodynia”.
